Patent US10335503B2, “Compound that specifically binds to AMPA receptor” (Public University Corporation Yokohama City University, priority 2015, dated 2019)

Tests used:
Adenosine A1 = Adenosine A1 (Homo sapiens, UniProt P30542); assay: Receptor binding panel: Adenosine A1; details: K-2 at 1 × 10^−7 mol/L
α1A-Adrenergic = α1A-Adrenergic (Homo sapiens, UniProt P35348); assay: Receptor binding panel: α1A-Adrenergic; details: K-2 at 1 × 10^−7 mol/L
α1B-Adrenergic = α1B-Adrenergic (Homo sapiens, UniProt P35368); assay: Receptor binding panel: α1B-Adrenergic; details: K-2 at 1 × 10^−7 mol/L
α2A-Adrenergic = α2A-Adrenergic (Homo sapiens, UniProt P08913); assay: Receptor binding panel: α2A-Adrenergic; details: K-2 at 1 × 10^−7 mol/L
β2-Adrenergic = β2-Adrenergic (Homo sapiens, UniProt P07550); assay: Receptor binding panel: β2-Adrenergic; details: K-2 at 1 × 10^−7 mol/L
CRF1 = target: T1, CRF1 (Homo sapiens, UniProt P34998); assay: Receptor binding panel: CRF1; details: K-2 at 1 × 10^−7 mol/L
T1 sequence (P34998 24-415): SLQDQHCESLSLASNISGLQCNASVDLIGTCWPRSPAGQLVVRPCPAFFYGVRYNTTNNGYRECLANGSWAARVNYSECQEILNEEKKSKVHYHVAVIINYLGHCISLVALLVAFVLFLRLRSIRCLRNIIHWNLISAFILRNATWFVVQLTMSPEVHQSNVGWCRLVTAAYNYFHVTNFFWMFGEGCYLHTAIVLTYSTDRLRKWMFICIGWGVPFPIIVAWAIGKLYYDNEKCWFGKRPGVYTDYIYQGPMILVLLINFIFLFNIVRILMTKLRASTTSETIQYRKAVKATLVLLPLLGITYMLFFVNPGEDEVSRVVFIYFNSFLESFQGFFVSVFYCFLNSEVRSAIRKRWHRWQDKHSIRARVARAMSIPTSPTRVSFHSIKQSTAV

Endothelin ETA = Endothelin ETA (Homo sapiens, UniProt P25101); assay: Receptor binding panel: Endothelin ETA; details: K-2 at 1 × 10^−7 mol/L
GABA A (BZ central) = assay: Receptor binding panel: GABA A (BZ central); details: K-2 at 1 × 10^−7 mol/L
Glutamate (Kainate) = assay: Receptor binding panel: Glutamate (Kainate); details: K-2 at 1 × 10^−7 mol/L
[1] = tested on: Glycine (Strychnine sensitive); assay: Receptor binding panel: Glycine (Strychnine sensitive); details: K-2 at 1 × 10^−7 mol/L
Histamine H1 = Histamine H1 (Homo sapiens, UniProt P35367); assay: Receptor binding panel: Histamine H1; details: K-2 at 1 × 10^−7 mol/L
Histamine H3 = Histamine H3 (Homo sapiens, UniProt Q9Y5N1); assay: Receptor binding panel: Histamine H3; details: K-2 at 1 × 10^−7 mol/L
K Channel SKCa = assay: Receptor binding panel: K Channel SKCa; details: K-2 at 1 × 10^−7 mol/L
Muscarinic M2 = Muscarinic M2 (Homo sapiens, UniProt P08172); assay: Receptor binding panel: Muscarinic M2; details: K-2 at 1 × 10^−7 mol/L
Nicotinic = assay: Receptor binding panel: Nicotinic; set-up: species or system Human; details: K-2 at 1 × 10^−7 mol/L
Opiate μ = Opiate μ (Homo sapiens, UniProt P35372); assay: Receptor binding panel: Opiate μ; details: K-2 at 1 × 10^−7 mol/L
Serotonin 5HT2A = Serotonin 5HT2A (Homo sapiens, UniProt P28223); assay: Receptor binding panel: Serotonin 5HT2A; details: K-2 at 1 × 10^−7 mol/L
Serotonin 5HT3 = Serotonin 5HT3 (Homo sapiens, UniProt P46098); assay: Receptor binding panel: Serotonin 5HT3; details: K-2 at 1 × 10^−7 mol/L
Sigma σ2 = Sigma σ2 (Homo sapiens, UniProt Q5BJF2); assay: Receptor binding panel: Sigma σ2; details: K-2 at 1 × 10^−7 mol/L
Vasopressin V1 = Vasopressin V1 (Homo sapiens, UniProt P37288); assay: Receptor binding panel: Vasopressin V1; details: K-2 at 1 × 10^−7 mol/L
AMPA receptor = assay: Electrophysiological experiment: AMPA current by whole-cell recording in acute hippocampus section; type: cell-based, rat; details: 150 μM in ACSF for 15 minutes, CA1 pyramidal cell, ground state converted as 1
Procedure: In the LC-MS/MS experiment, all of the synthesized compounds were dissolved in 100% DMSO so as to have a concentration of 2.5 mM, diluted with physiological saline water immediately before administration (PEPA (1.2 pmol/g), M-1 (12 pmol/g), K-2 (12 pmol/g), M-3 (60 pmol/g), and M-2 (240 pmol/g)), and administered by the parenteral route. In the electrophysiological experiment, PEPA and K-2 were dissolved in 100% DMSO so as to have a concentration of 150 mM, diluted with ACSF as a reflux liquid immediately before the experiment so as to have a concentration of 150 μM and then used. […]
A 7- to 8-week-old male SD rat was used. […] The section was left to stand still in ACSF at room temperature for 60 minutes, and then the AMPA current was measured by a whole-cell recording method. 100 μM of picrotoxin and 100 μM of DL-APV were administered under the condition that the ACSF was refluxed at a rate of 3 ml/min, and then only the AMPA current was isolated and measured.
The recording electrode was placed on a pyramidal cell in CA1, and the exciting electrode was placed on the Schaffer fiber separated away from the recording cell by 100 to 200 μm. […] The AMPA current in the ground state was recorded for 5 minutes, reflux was thereafter performed using ACSF added with PEPA or K-2 for 15 minutes, and then the AMPA current was recorded in the reflux liquid not containing PEPA or K-2 for 30 minutes. […]

Vasopressin V1, sequence (P37288 whole entry): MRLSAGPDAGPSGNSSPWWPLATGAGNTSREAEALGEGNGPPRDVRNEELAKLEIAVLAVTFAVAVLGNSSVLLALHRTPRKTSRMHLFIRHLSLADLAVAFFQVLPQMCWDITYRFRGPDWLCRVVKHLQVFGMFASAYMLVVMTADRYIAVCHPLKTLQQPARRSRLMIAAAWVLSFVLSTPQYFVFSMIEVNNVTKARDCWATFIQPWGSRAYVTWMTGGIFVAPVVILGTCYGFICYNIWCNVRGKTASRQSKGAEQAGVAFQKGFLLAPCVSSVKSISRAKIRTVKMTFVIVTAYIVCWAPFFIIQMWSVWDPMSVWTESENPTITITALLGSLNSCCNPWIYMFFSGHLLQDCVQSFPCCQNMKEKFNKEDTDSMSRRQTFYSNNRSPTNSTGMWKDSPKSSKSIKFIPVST
α1B-Adrenergic, sequence (P35368 whole entry): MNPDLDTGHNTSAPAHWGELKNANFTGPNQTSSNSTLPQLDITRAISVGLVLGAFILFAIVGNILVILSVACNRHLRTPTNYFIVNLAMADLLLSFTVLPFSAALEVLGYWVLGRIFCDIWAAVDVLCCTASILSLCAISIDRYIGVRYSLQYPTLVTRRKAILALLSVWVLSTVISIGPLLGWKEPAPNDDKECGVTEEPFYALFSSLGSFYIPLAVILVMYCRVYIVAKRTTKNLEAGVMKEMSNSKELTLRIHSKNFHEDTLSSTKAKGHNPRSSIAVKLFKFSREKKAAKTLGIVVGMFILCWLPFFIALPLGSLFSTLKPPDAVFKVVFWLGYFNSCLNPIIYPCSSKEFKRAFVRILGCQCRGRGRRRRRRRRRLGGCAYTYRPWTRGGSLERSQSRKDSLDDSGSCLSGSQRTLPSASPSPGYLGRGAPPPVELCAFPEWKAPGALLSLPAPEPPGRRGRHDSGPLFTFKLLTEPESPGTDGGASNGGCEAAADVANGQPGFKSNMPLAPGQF
Histamine H1, sequence (P35367 whole entry): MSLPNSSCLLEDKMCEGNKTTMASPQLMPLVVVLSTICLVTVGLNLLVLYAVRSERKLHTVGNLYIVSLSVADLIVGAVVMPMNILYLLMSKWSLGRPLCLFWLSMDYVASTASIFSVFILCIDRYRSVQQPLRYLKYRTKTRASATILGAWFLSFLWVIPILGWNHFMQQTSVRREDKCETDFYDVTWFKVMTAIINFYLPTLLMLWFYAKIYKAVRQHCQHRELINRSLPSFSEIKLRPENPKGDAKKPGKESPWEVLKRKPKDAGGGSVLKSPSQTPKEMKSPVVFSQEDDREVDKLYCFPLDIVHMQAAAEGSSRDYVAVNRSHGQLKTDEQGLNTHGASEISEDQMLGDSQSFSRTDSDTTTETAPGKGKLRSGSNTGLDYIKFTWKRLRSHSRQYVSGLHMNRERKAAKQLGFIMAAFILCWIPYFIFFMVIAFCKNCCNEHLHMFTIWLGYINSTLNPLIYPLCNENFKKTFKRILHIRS
Histamine H3, sequence (Q9Y5N1 whole entry): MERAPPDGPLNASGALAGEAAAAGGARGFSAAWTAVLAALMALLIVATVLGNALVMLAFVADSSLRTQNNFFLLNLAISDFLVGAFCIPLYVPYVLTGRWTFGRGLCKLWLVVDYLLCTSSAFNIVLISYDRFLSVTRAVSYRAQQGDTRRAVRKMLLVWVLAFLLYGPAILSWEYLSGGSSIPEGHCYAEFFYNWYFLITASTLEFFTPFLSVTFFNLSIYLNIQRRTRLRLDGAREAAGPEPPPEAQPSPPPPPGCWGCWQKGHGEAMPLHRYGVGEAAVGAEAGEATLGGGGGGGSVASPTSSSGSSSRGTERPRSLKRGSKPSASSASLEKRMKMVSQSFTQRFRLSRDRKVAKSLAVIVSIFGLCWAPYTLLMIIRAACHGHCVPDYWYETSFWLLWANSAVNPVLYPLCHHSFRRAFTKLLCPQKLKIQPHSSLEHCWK
β2-Adrenergic, sequence (P07550 whole entry): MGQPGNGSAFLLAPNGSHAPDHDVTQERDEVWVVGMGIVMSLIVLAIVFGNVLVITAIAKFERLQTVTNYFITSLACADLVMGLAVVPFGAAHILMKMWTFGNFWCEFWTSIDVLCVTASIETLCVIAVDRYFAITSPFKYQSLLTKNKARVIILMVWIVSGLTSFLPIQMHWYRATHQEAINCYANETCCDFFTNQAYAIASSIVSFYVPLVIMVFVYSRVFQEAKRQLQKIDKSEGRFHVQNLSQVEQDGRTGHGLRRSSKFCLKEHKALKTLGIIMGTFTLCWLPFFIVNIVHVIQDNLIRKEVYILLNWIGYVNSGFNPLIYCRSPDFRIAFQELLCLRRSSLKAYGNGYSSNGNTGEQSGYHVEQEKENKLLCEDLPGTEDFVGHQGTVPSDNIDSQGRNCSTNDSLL
Serotonin 5HT3, sequence (P46098 24-478): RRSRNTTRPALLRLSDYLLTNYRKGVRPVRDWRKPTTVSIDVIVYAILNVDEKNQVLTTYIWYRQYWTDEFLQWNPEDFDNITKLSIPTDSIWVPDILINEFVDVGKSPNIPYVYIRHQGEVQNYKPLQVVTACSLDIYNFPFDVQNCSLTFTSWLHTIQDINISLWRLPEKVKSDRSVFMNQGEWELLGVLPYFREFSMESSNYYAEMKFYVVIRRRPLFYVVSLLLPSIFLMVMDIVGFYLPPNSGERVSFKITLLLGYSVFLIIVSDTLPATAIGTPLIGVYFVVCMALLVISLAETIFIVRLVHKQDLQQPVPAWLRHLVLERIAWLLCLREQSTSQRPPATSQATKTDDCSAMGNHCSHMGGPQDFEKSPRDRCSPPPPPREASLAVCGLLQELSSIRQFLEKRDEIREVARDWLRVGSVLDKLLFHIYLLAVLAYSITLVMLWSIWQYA
Opiate μ, sequence (P35372 whole entry): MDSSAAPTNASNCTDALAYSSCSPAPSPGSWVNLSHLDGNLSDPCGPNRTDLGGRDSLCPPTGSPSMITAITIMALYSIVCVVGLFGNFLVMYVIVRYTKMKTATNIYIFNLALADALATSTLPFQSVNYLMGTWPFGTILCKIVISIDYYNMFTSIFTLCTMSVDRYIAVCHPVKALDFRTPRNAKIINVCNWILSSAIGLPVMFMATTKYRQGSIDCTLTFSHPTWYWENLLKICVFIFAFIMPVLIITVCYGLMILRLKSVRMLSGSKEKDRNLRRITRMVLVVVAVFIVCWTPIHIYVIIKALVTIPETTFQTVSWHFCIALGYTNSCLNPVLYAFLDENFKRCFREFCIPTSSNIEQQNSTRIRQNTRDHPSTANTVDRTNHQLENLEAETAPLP
α2A-Adrenergic, sequence (P08913 whole entry): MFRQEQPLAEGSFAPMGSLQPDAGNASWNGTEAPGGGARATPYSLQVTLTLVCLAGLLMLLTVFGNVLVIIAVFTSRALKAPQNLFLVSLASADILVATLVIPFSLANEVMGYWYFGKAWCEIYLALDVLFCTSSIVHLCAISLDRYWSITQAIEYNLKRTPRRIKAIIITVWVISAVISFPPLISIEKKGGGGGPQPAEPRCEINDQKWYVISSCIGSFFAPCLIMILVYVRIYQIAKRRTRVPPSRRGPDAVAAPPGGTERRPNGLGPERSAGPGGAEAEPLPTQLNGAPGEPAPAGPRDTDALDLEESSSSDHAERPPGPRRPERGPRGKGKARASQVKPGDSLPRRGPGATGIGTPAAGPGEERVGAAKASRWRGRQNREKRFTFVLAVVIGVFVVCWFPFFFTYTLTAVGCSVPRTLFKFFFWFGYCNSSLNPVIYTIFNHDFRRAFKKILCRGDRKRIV
Sigma σ2, sequence (Q5BJF2 whole entry): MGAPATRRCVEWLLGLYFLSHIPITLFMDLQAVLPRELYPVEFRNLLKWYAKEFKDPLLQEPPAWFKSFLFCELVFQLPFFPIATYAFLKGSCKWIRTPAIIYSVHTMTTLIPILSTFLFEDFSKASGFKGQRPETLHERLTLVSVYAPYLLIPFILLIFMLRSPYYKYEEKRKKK
Serotonin 5HT2A, sequence (P28223 whole entry): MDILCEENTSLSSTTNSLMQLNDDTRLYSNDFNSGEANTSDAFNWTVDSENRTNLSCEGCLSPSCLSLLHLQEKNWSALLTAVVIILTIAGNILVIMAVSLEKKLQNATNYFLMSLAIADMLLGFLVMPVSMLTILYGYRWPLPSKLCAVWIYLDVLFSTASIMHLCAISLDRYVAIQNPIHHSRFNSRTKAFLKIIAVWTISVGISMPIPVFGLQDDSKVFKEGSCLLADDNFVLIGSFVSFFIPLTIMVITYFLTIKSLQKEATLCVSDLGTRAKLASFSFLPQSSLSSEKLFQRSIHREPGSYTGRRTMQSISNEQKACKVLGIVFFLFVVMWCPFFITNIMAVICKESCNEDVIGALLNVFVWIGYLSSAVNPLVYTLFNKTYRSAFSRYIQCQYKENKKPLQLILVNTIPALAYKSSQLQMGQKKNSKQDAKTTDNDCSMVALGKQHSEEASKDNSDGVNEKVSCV
Endothelin ETA, sequence (P25101 21-427): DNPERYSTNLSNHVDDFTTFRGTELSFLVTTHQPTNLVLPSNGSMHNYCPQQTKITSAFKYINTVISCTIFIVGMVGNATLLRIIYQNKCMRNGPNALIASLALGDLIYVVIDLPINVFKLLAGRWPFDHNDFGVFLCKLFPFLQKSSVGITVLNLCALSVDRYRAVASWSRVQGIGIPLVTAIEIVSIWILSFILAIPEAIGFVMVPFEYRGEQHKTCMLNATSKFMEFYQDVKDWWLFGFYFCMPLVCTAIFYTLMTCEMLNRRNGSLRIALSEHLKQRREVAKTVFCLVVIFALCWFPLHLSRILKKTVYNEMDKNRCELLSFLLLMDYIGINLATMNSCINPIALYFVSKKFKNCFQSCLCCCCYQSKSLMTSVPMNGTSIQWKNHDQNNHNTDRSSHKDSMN

Q: With `CN(CCSc1cc(F)c(OCC(N)=O)c(F)c1)S(=O)(=O)c1ccccc1` [K-2, {4-[2-(benzenesulfonyl-methyl-amino)-ethylsulfanil]-2,6-difluoro-phenoxy}-acetamide] as the molecule, how does the inhibition at 0.1 µM (Adenosine A1) read?
A: The inhibition at 0.1 µM was 5.29%.

Q: What about the inhibition at 0.1 µM (α1A-Adrenergic) of the same molecule?
A: The inhibition at 0.1 µM was 0.21%.

Q: What about the inhibition at 0.1 µM (α1B-Adrenergic) of the same molecule?
A: The inhibition at 0.1 µM was 0%.

Q: And the inhibition at 0.1 µM (α2A-Adrenergic)?
A: The inhibition at 0.1 µM was 8.77%.

Q: And the inhibition at 0.1 µM (β2-Adrenergic)?
A: The inhibition at 0.1 µM was 3.39%.

Q: What about the inhibition at 0.1 µM (CRF1) of the same molecule?
A: The inhibition at 0.1 µM was 1.37%.

Q: And the inhibition at 0.1 µM (Endothelin ETA)?
A: The inhibition at 0.1 µM was 1.81%.

Q: What about the “Inhibition (%)” value (GABA A (BZ central)) of the same molecule?
A: Its value is 1.54%.

Q: What about the “Inhibition (%)” value (Glutamate (Kainate)) of the same molecule?
A: The value was 1.68%.

Q: What about the “Inhibition (%)” value [1] of the same molecule?
A: The value was 8.46%.

Q: And the inhibition at 0.1 µM (Histamine H1)?
A: Its inhibition at 0.1 µM is 6.53%.

Q: What about the inhibition at 0.1 µM (Histamine H3) of the same molecule?
A: Its inhibition at 0.1 µM is 0%.

Q: And the “Inhibition (%)” value (K Channel SKCa)?
A: Its value is 0.00%.

Q: What about the inhibition at 0.1 µM (Muscarinic M2) of the same molecule?
A: Its inhibition at 0.1 µM is 0.51%.

Q: And the “Inhibition (%)” value (Nicotinic)?
A: The value was 7.17%.

Q: And the inhibition at 0.1 µM (Opiate μ)?
A: The inhibition at 0.1 µM was 8.78%.

Q: And the inhibition at 0.1 µM (Serotonin 5HT2A)?
A: Its inhibition at 0.1 µM is 9.32%.

Q: And the inhibition at 0.1 µM (Serotonin 5HT3)?
A: Its inhibition at 0.1 µM is 1.57%.

Q: And the inhibition at 0.1 µM (Sigma σ2)?
A: Its inhibition at 0.1 µM is 4.07%.

Q: And the inhibition at 0.1 µM (Vasopressin V1)?
A: The inhibition at 0.1 µM was 4.76%.

Q: And the “ratio of AMPA current to reference value” (AMPA receptor)?
A: Its value is 1.7±0.22.
